Results as given in publication PMC9127750, “Structure-based design of CDC42 effector interaction inhibitors for the treatment of cancer” (Cell reports, 2022).
Values joined by “and” are separate entries in the source; they are usually repeats but may differ in a detail not shown here. Identical values can stand only once.

Test system: WM3248 melanoma cells, 486 antibodies
Assay: Reverse phase protein arrays (RPPA)
Assay type: cell-based, Human
Source text: Pellets were snap frozen in liquid nitrogen and shipped to MD Anderson Cancer Center core RPPA facility for RPPA analysis (Table S5). Three biological replicates for each sample were generated.
Nomenclatures on the RPPA heatmaps: name_of_antibody.species_of_antibody.status_of_antibody. V - antibody validated; C - validation of antibody in progress; Q - antibody nonspecific; E – under evaluation; antibodies raised in M - mouse, G - goat, R - rabbit, or T - rat.

[1] = Norm_10: replicates 1-3 and Average, relative to 0

## CN(C)c1cccc(Nc2cc(-c3ccccc3)nc(C3CCNCC3)n2)c1 [ARN22089, N1,N1-dimethyl-N3-(6-phenyl-2-(piperidin-4-yl)pyrimidin-4-yl)benzene-1,3-diamine]
Norm_10, normalized to Norm_0
  p38.MAPK.R.V Average: 0.984
  p38.MAPK._pT180_Y182.R.V Average: 0.822
  p38.a.M.V Average: 1.035
  p44.42.MAPK.R.V Average: 1.129
  p70.S6K1.R.V Average: 1.024
  p90RSK_pT573.R.C Average: 0.999
[1]
  PREX1.R.V normalized RPPA signal: 1.017 and 0.962 and 0.972
  PTEN.R.V normalized RPPA signal: 1.166 and 0.849 and 0.856 and 0.957
  PTPN12.R.V normalized RPPA signal: 0.749 and 0.939 and 0.909
  PYGB.R.V normalized RPPA signal: 1.205 and 1.156 and 1.144
  PYGM.M.C normalized RPPA signal: 0.918 and 2.001 and 1.335
  Puma.R.C normalized RPPA signal: 1.060 and 1.017 and 1.055
  Pyk2_pY402.R.C normalized RPPA signal: 1.111 and 0.863 and 0.946
  RBM15.R.V normalized RPPA signal: 0.891 and 1.000 and 0.960 and 0.950
  RIP3.R.C normalized RPPA signal: 0.942 and 0.921 and 0.948 and 0.937
  RIP.R.C normalized RPPA signal: 0.780 and 1.118 and 1.150 and 1.016
  RPA32.R.V normalized RPPA signal: 1.060 and 1.362 and 1.197 and 1.207
  RPA32_pS4_S8.R.C normalized RPPA signal: 1.546 and 1.295 and 1.489 and 1.443
  RRM1.R.C normalized RPPA signal: 0.939 and 0.806 and 0.945 and 0.897
  RRM2.R.C normalized RPPA signal: 0.757 and 0.774 and 0.866
  RSK1.R.V normalized RPPA signal: 1.143 and 1.201 and 1.128
  RSK.R.C normalized RPPA signal: 0.838 and 1.004 and 0.972
  Rab11.R.C normalized RPPA signal: 1.030 and 0.917 and 0.953
  Rab25.R.V normalized RPPA signal: 1.035 and 0.882 and 0.858 and 0.925
  Rad17_pS645.R.V normalized RPPA signal: 0.792 and 0.966
  Rad23A.R.C normalized RPPA signal: 0.804 and 0.923 and 1.597 and 1.108
  Rad50.R.V normalized RPPA signal: 1.116 and 1.111
  Rad51.R.C normalized RPPA signal: 0.827 and 0.908 and 0.944 and 0.893
  Raptor.R.V normalized RPPA signal: 0.845 and 0.882 and 0.940 and 0.889
  Rb.M.Q normalized RPPA signal: 0.863 and 1.097 and 1.016
  Rb_pS807_S811.R.V normalized RPPA signal: 0.811 and 0.958 and 0.878
  Rheb.M.C normalized RPPA signal: 1.032 and 1.240 and 1.115
  Rictor.R.C normalized RPPA signal: 0.988 and 0.910 and 0.945 and 0.948
  Rictor_pT1135.R.V normalized RPPA signal: 0.873 and 0.950 and 0.954
  S6.M.V normalized RPPA signal: 1.085 and 0.996 and 1.017
  S6_pS235_S236.R.V normalized RPPA signal: 0.521 and 0.472 and 0.641 and 0.545
  S6_pS240_S244.R.V normalized RPPA signal: 0.582 and 0.274 and 0.654 and 0.504
  SCD.M.V normalized RPPA signal: 0.991 and 1.046
  SDHA.R.V normalized RPPA signal: 0.992 and 0.940 and 0.859 and 0.930
  SF2.R.V normalized RPPA signal: 0.895 and 1.050 and 0.922 and 0.956
  SFRP1.R.V normalized RPPA signal: 0.808 and 0.981 and 1.003 and 0.931
  SGK1.R.V normalized RPPA signal: 1.008 and 0.920 and 1.014 and 0.981
  SGK3.R.V normalized RPPA signal: 0.816 and 0.987 and 0.963 and 0.922
  SHP2.R.V normalized RPPA signal: 0.944 (2×) and 1.029 and 0.972
  SHP.2_pY542.R.C normalized RPPA signal: 1.060 and 0.917 and 0.992 and 0.990
  SIRPαR.V normalized RPPA signal: 0.835 and 1.085 and 0.937 and 0.953
  SLC1A5.R.C normalized RPPA signal: 1.027
  SOD1.M.V normalized RPPA signal: 0.907 and 1.127 and 1.007 and 1.014
  SOD2.R.V normalized RPPA signal: 1.018 and 1.276 and 0.952 and 1.082
  SOX7.R.V normalized RPPA signal: 1.145 and 1.060
  STING.R.V normalized RPPA signal: 0.851 and 0.953
  Shc_pY317.R.C normalized RPPA signal: 0.714 and 5.496 and 1.397 and 2.535
  Slfn11.G.C normalized RPPA signal: 0.876 and 1.082 and 1.481 and 1.146
  Smac.M.Q normalized RPPA signal: 0.850 and 1.137 and 0.963 and 0.983
  Smad1.R.V normalized RPPA signal: 0.960 and 0.924 and 0.963
  Smad3.R.V normalized RPPA signal: 1.062 and 0.979 and 1.026
  Smad4.R.V normalized RPPA signal: 1.013 and 1.128 and 0.985
  Snail.M.Q normalized RPPA signal: 0.664 and 0.941 and 0.860 and 0.822
  Sox2.R.V normalized RPPA signal: 1.126 and 1.008 and 0.910 and 1.015
  Sox17.R.V normalized RPPA signal: 0.905 and 1.111 and 1.000 and 1.005
  Src.M.V normalized RPPA signal: 0.883 and 1.206 and 0.940 and 1.010
  Src_pY416.R.V normalized RPPA signal: 1.030 and 0.914 and 0.902
  Src_pY527.R.V normalized RPPA signal: 1.278 and 0.689 and 0.973
  Stat1_pY701.R.V normalized RPPA signal: 0.995 (2×) and 1.011 and 1.000
  Stat3.R.C normalized RPPA signal: 0.999 and 0.915 and 0.942
  Stat3_pY705.R.C normalized RPPA signal: 1.077 and 1.148 and 1.012 and 1.079
  Stat5a.R.V normalized RPPA signal: 1.155 and 0.661 and 0.766 and 0.861
  Stathmin.1.R.V normalized RPPA signal: 0.870 and 1.129 and 0.982
  Syk.M.V normalized RPPA signal: 0.771 and 0.940 and 1.123 and 0.945
  Synaptophysin.R.C normalized RPPA signal: 0.939 and 1.003 and 0.960
  TAZ.R.V normalized RPPA signal: 0.664 and 1.279 and 1.012
  TEAD.R.C normalized RPPA signal: 0.761 and 0.855 and 1.077 and 0.898
  TFAM.R.V normalized RPPA signal: 0.933 and 0.917 and 0.914 and 0.921
  TFRC.R.V normalized RPPA signal: 0.993 and 0.819 and 0.888 and 0.900
  TIGAR.R.V normalized RPPA signal: 0.948 and 0.928 and 0.972
  TRAP1.M.V normalized RPPA signal: 0.886 and 1.063 and 0.996
  TRIM24.R.C normalized RPPA signal: 0.955 and 1.027
  TRIM25.R.C normalized RPPA signal: 0.793 and 0.863 and 1.102 and 0.919
  TRIP13.R.V normalized RPPA signal: 1.018 and 1.029 and 1.031
  Tau.M.C normalized RPPA signal: 1.047 and 1.298 and 0.928
  Transglutaminase.M.V normalized RPPA signal: 1.016 and 1.436 and 2.172 and 1.541
